Consider eleven compounds from patent US8901305B2, “Aryl lactam kinase inhibitors” (Bristol-Myers Squibb Company, priority 2012, dated 2014).

Test [1] relates to formalin paw test in mice. Briefly: formalin paw test (pain response). The format is in vivo. The method, then:
AAK1 homozygous (−/−) and their wild-type (+/+) littermates were tested using the formalin paw test in order to assess their acute and tonic nociceptive responses. For these tests, Automatic Nociception Analyzers (purchased from the Ozaki lab at University of California, San Diego) were used. A metal band was placed around the left hind paw of each mouse 30 minutes prior to testing. After the 30-minute acclimation period, 20 μl of 5% formalin is subcutaneously injected in the dorsal surface of the left hind paw. Mice were individually housed in cylindrical chambers for 45 minutes. Fresh 5% formalin solution was prepared by diluting formaldehyde (Formalde-fresh 20%, Fisher Scientific, Fair Lawn, N.J.) with distilled water. Investigatory compounds were administered 30 minutes prior to formalin injection.
A computer recorded flinches per minute, total flinches for phase I (acute phase=first 8 minutes), and total flinches for phase II (tonic phase=time between minutes 20-40) through an electromagnetic field. See Yaksh T L, Ozaki G, McCumber D, Rathbun M, Svensson C, Malkmus S, Yaksh M C. An automated flinch detecting system for use in the formalin nociceptive bioassay. J Appl Physiol., 2001; 90:2386-402.
The same test was used to confirm that the administration of an AAK1 inhibitor can also affect pain response.
A compound of the disclosure was tested in this assay at different doses. Gabapentin and pregabalin were used as positive controls. Results are shown below in Table 2, wherein the effect of gabapentin at 200 mg/kg is considered a 100% response, the % response for the other compounds is relative to the 200 mg/kg dose of gabapentin, “sc” means subcutaneous administration; “po” means oral administration.

In the next test the target is T1, GST-Xa-hAAK1 (Homo sapiens, UniProt Q2M2I8).
T1 construct: made in house
Nature of the test: AAK1 kinase assay. Type of test: biochemical. To be noted: ATP 22 μM, 3 hours at room temperature. The method, boiled down: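 Bacterially expressed GST-Xa-hAAK1 was combined with substrates and compounds (eleven concentrations) and incubated 3 h at room temperature, then stopped with EDTA. Fluorescent substrate and phosphorylated product were separated electrophoretically (Caliper LabChip), and IC50 values came from non-linear regression.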

Test [2] concerns the target T2, AAK1 (full length human) with AP2M1 in HEK293F cells (Homo sapiens, UniProt Q2M2I8).
T2 construct: expressed in transfected cells; host or cells: HEK293F
Briefly: HEK281 cell-based assay (phospho-mu2 Western blot in transfected HEK293F cells). To be noted: 3 hours, inhibition of mu2 phosphorylation. The method, then: HEK293F cells were cultured in media containing DMEM (Gibco, cat. #11965), 10% FBS (SAFC Biosciences, cat. #12103C), 1×GPS (glutamine, penicillin and streptomycin). On day one, cells were plated on a 10 cm dish so that they are ˜80% confluent at time of transfection. Roughly 12 million cells were in a 10 cm dish at time of transfection. On day two, each dish was transfected with 48 ug DNA and 144 ul Lipofectamine 2000 (Invitrogen, cat. #11668-019). The DNA was comprised of a mixture (per 10 cm dish) containing 3 ug AAK1/HA/pIRES (full length human, NCBI accession no. NP_055726.2), 45 μg Flag/AP2MI/pcDNA (full length human), and 1.5 ml OPTI-MEM. The Lipofectamine 2000 is made up of a mixture (per 10 cm dish) containing 144 μl Lipofectamine 2000 and 1.5 ml OPTI-MEM. Each mixture was transferred to individual 15 ml tubes and incubated at RT for 5 minutes, and then the two mixes were combined and incubated at RT for 20 minutes. Growth media was then aspirated from each 10 cm plate and replaced with 10 ml of DMEM+10% FBS (no GPS). Finally, 3 ml DNA/Lipofectamine mix was added to each 10 cm dish and mix gently followed by incubate of plate overnight at 37° C. and 5% CO2.
On day three, compounds were diluted in 100% DMSO at 1000× final concentration, followed by 3-fold serial dilutions for a total of 5 concentrations tested. Four compounds were tested per 10 cm dish. One ul of each compound dilution was then pipetted into a deep-well, 96-well plate, followed by addition of 500 μl DMEM+0.5% FBS into each well for a 2× final concentration of each compound. Cells were resuspended in a 10 cm dish by simple pipetting (HEK293 cells come off the plate that easy at this point) and then transferred to a 50 ml conical tube and pelleted by centrifugation at 1000 rpm for 5 min. Cell pellets were then resuspended in 2.75 ml DMEM+0.5% FBS per 10 cm dish and 100 μl of cell suspension transferred into each well of 96-well TC plate. Finally, 100 μl of 2× compound diluted in DMEM+0.5% FBS was then added into wells containing cell suspension for a 1× final concentration. Plates were then incubated at 37° C. and 5% CO2 for 3 hours followed by transferring of cell suspensions from each well into 12-tube PCR strips. The PCR strips were spun in a tip rack at 1000 rpm for 5 minutes to pellet cells and media was then removed by pipetting without disturbing the cell pellet.
To prepare for Western Blot analysis, cell pellets were resuspend in 40 ul 1×LDS-PAGE sample buffer (Invitrogen, cat. # NP0008)+2× Halt phosphatase and protease inhibitor cocktail (Thermo Scientific, cat. #1861284), followed by sonicating each with microtip sonicator set at 5 for 8-10 seconds. Five ul of 10× NuPage Sample Reducing Agent (with […]) was to each sample followed by heat denaturing at 70 C for 10 min on PCR machine. A total of 10 μl per sample was loaded into each lane of a 4-20% Tris-Glycine Criterion 26-well gel (Biorad, cat. #345-0034) for the phospho-mu2 blot and 10 μl per lane in a 4-12% Bis-Tris (+MES buffer) NuPAGE 26-well gel (Invitrogen, cat. # WG1403BX10) for the mu2 blot. For controls, 2 ng of phospho-mu2 or 20 ng mu2/Flag proteins were loaded in the last well of each gel. After SDS-PAGE, samples on each gel were transferred to PVDF membrane using an iBlot and membranes were blocked for one hour in TBST+5% milk, followed by wash 3× for 5-10 min with TBST. Criterion gels were probed with rabbit anti-phospho-mu2 (1:5000; a rabbit polyclonal antibody produced by New England Peptide and affinity purified at Lexicon) in TBST+5% BSA, whereas, NuPAGE gels were probed with mouse anti-Flag (1:500; Sigma, cat. # F1804) in TBST+5% milk, and these primary antibodies were incubated overnight at 4° C. on a rocker. […]
On the technique in general: Immunoblotting shows a protein as a band on a membrane.

The mark [3] stands for this setting: 50 mg/kg sc, relative to gabapentin 200 mg/kg = 100%.

T2 sequence (Q2M2I8 whole entry): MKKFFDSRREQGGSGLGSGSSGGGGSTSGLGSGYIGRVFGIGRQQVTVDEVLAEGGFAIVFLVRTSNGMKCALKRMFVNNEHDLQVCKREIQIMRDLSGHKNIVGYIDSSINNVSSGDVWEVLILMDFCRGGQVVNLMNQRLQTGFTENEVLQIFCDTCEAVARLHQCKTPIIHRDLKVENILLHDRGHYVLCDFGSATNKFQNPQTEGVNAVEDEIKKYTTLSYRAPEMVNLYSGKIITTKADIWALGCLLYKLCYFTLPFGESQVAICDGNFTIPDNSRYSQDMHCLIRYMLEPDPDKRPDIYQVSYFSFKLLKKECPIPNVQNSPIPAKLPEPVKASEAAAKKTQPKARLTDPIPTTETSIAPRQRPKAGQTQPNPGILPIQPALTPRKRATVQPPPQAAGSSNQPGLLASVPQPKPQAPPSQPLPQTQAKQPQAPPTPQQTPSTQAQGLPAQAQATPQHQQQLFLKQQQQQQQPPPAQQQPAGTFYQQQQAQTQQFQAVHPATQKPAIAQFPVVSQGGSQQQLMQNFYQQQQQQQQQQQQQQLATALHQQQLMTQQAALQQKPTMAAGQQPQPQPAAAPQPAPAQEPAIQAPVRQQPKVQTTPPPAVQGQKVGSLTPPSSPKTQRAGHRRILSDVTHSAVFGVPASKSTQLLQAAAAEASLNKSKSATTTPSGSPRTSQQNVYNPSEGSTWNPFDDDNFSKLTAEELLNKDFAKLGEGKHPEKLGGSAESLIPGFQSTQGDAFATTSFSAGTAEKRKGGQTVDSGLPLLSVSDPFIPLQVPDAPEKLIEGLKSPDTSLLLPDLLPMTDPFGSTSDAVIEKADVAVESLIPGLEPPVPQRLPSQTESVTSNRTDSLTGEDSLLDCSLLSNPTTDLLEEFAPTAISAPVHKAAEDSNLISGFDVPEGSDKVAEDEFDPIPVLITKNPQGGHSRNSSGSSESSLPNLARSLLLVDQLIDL
T1 sequence (Q2M2I8 whole entry): as above

As to `CC(C)C[C@H](CN)CC(=O)O` [Pregabalin, pregabalin], in test [1] (setting [3]), the Response is given as 90%.
With `NCC1(CC(=O)O)CCCCC1` [Gabapentin, gabapentin], the Response amounted to 60% in test [1] (setting [3]) and 100% in test [1] (200 mg/kg sc, considered a 100% response).
By IC50 is commonly meant the concentration needed to halve the response being measured. For `Cn1c(=O)c2cnccc2c2cc(C#N)c(OCC(N)CCC(F)(F)F)cc21` (stereo not drawn) [Example 56, 8-((2-amino-5,5,5-trifluoropentyl)oxy)-6-methyl-5-oxo-5,6 dihydrobenzo[c][2,7]naphthyridine-9-carbonitrile], the IC50 (at GST-Xa-hAAK1 (given as IC50 range); in test [2] (given as IC50 range)) was 0.001 to 0.01 µM throughout.
Consider `Cc1nccc2c1c(=O)[nH]c1cc(OC[C@@H](N)CC(C)C)c(F)cc12` [Example 101, (S)-8-(2-amino-4-methylpentyloxy)-9-fluoro-4-methylbenzo[c][2,7]naphthyridin-5(6H)-one], for which the IC50 at GST-Xa-hAAK1 (given as IC50 range) is 0.001 to 0.01 µM; in test [2], 0.0052 µM.
In the case of `Cc1nccc2c1c(=O)n(C)c1cc(OC[C@H](N)CC(C)C)ccc21` [Example 19, (R)-8-((2-amino-4-methylpentyl)oxy)-4,6-dimethylbenzo[c][2,7]naphthyridin-5(6H)-one], the IC50 (on GST-Xa-hAAK1 (given as IC50 range); in test [2] (given as IC50 range)) was 0.01 to 0.1 µM in each case.
For `Cc1nccc2c1c(=O)n(C)c1cc(OC[C@@H](N)CC=C(F)F)c(C#N)cc21` [Example 106, (S)-8-((2-amino-5,5-difluoropent-4-en-1-yl)oxy)-4,6-dimethyl-5-oxo-5,6-dihydrobenzo[c][2,7]naphthyridine-9-carbonitrile], the IC50 (at GST-Xa-hAAK1 (given as IC50 range); in test [2] (given as IC50 range)) was less than 0.001 µM in each case.
`Cc1nccc2c1c(=O)n(C)c1cc(OC(C)[C@@H](N)CC(C)C)ccc21` (mixture of isomers) [Example 33, 8-(((2S,3S)-3-amino-5-methylhexan-2-yl)oxy)-4,6 dimethylbenzo[c][2,7]naphthyridin-5(6H)-one]: the concentration for half-maximal inhibition (IC50) on GST-Xa-hAAK1 (given as IC50 range) was 0.01 to 0.1 µM; in test [2] it was 0.011 µM.
With `CC(C)C[C@H](N)COc1cc2c(cc1-c1cnco1)c1ccncc1c(=O)n2C` [Example 48, (S)-8-(2-amino-4-methylpentyloxy)-6-methyl-9-(oxazol-5-yl)benzo[c][2,7]naphthyridin-5(6H)-one], the 50% inhibitory concentration (IC50) is 0.001 to 0.01 µM at GST-Xa-hAAK1 (given as IC50 range) and 0.0018 µM in test [2].
Regarding `Cn1c(=O)c2cnccc2c2ccc(OCC(N)CCC(F)(F)F)cc21` (stereo not drawn) [Example 15, 8-(2-amino-5,5,5-trifluoropentyloxy)-6-methylbenzo[c][2,7]naphthyridin-5(6H)-one], the IC50 (on GST-Xa-hAAK1 (given as IC50 range); in test [2] (given as IC50 range)) was 0.01 to 0.1 µM each time.
Consider `Cc1cc2c3ccnc(C)c3c(=O)n(C)c2cc1OC[C@@H](N)CC1CC1` [Example 25, (S)-8-(2-amino-3-cyclopropylpropoxy)-4,6,9-trimethylbenzo[c][2,7]naphthyridin-5(6H)-one], for which the 50% inhibitory concentration (IC50) on GST-Xa-hAAK1 is 0.00055 µM; in test [2] (given as IC50 range), 0.001 to 0.01 µM.
With `CC(C)CC(C)(N)COc1ccc2c3c(F)cncc3c(=O)n(C)c2c1` (stereo not drawn) [Example 97, 8-(2-amino-2,4-dimethylpentyloxy)-1-fluoro-6-methylbenzo[c][2,7]naphthyridin-5(6H)-one], the IC50 fell in the range of 0.001 to 0.01 µM on GST-Xa-hAAK1 (given as IC50 range) and 0.01 to 0.1 µM in test [2] (given as IC50 range).
